{"source": "the supplement of paper PMC10307832", "assay_in_all_cases": "relative viability (nuclei count vs DMSO), 5 days (fraction); higher = more cells survive", "key": {"BAM7 + Trametinib": {"compound": "CCOC1=CC=CC=C1N=NC2=C(NN(C2=O)C3=NC(=CS3)C4=CC=CC=C4)C [BAM7] + CC(=O)Nc1cccc(-n2c(=O)n(C3CC3)c(=O)c3c(Nc4ccc(I)cc4F)n(C)c(=O)c(C)c32)c1 [Trametinib] (partner 0.02 µM)", "procedure,_shortened": "(§1)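 Lung cancer cell lines were seeded in 1536-well plates and dosed by pin tool the next day, with either a single drug or a fixed anchor-drug dose combined with five library-drug doses (not always all listed) spaced in √10 steps. Five days later, one step fixed the cells and stained their nuclei (final 0.05% Triton X-100, 1% formaldehyde, 1 ug/ml Hoechst), and nuclei were counted on 4× images. Relative viability is the nuclei count in treated wells divided by the count in vehicle wells, and each value is the median of duplicate plates.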"}, "BAM7 + Pictilisib": {"compound": "CCOC1=CC=CC=C1N=NC2=C(NN(C2=O)C3=NC(=CS3)C4=CC=CC=C4)C [BAM7] + CS(=O)(=O)N1CCN(Cc2cc3nc(-c4cccc5[nH]ncc45)nc(N4CCOCC4)c3s2)CC1 [Pictilisib] (partner 1 µM)", "procedure,_shortened": "as §1"}, "[1]": {"compound": "CCn1c(-c2nonc2N)nc2c(C#CC(C)(C)O)ncc(OC[C@H]3CCCNC3)c21 + CS(=O)(=O)CCNCc1ccc(-c2ccc3ncnc(Nc4ccc(OCc5cccc(F)c5)c(Cl)c4)c3c2)o1 [Lapatinib] (partner 2 µM)", "procedure,_shortened": "as §1"}, "[2]": {"compound": "CCn1c(-c2nonc2N)nc2c(C#CC(C)(C)O)ncc(OC[C@H]3CCCNC3)c21 + O=C(c1cc(Cc2n[nH]c(=O)c3ccccc23)ccc1F)N1CCN(C(=O)C2CC2)CC1 [Olaparib] (partner 8 µM)", "procedure,_shortened": "as §1"}}}
{"cell line": "UMC-11", "values": [{"measurement": "relative viability", "setting": "BAM7 + Trametinib; first compound 0.5 µM", "result": 0.694}, {"measurement": "relative viability", "setting": "BAM7 + Trametinib; first compound 5 µM", "result": 0.83}, {"measurement": "relative viability", "setting": "BAM7 + Trametinib; first compound 15.81 µM", "result": 0.728}, {"measurement": "relative viability", "setting": "BAM7 + Trametinib; first compound 50 µM", "result": 0.71}, {"measurement": "relative viability", "setting": "BAM7 + Pictilisib; first compound 0.5 µM", "result": 0.856}, {"measurement": "relative viability", "setting": "BAM7 + Pictilisib; first compound 5 µM", "result": 0.897}, {"measurement": "relative viability", "setting": "BAM7 + Pictilisib; first compound 15.81 µM", "result": 0.85}, {"measurement": "relative viability", "setting": "BAM7 + Pictilisib; first compound 50 µM", "result": 0.892}, {"measurement": "relative viability", "setting": "[1]; first compound 0.01 µM", "result": 1.08}, {"measurement": "relative viability", "setting": "[1]; first compound 0.03162 µM", "result": 0.987}, {"measurement": "relative viability", "setting": "[1]; first compound 0.1 µM", "result": 0.952}, {"measurement": "relative viability", "setting": "[1]; first compound 0.3162 µM", "result": 0.818}, {"measurement": "relative viability", "setting": "[1]; first compound 1 µM", "result": 1.08}, {"measurement": "relative viability", "setting": "[2]; first compound 0.01 µM", "result": 0.402}, {"measurement": "relative viability", "setting": "[2]; first compound 0.03162 µM", "result": 0.391}, {"measurement": "relative viability", "setting": "[2]; first compound 0.1 µM", "result": 0.655}, {"measurement": "relative viability", "setting": "[2]; first compound 0.3162 µM", "result": 0.392}, {"measurement": "relative viability", "setting": "[2]; first compound 1 µM", "result": 0.359}]}
